Publication PMC11230868, “eIF2β zinc-binding domain interacts with the eIF2γ subunit through the guanine nucleotide binding interface to promote Met-tRNAi^Met binding” (Bioscience Reports, 2024)

Columns and labels:
[1] = biological target: T1, eIF2 complex (eIF2αβγ) (Saccharomyces cerevisiae, UniProt P32481); experiment: fluorescence anisotropy titration of protein; format: binding; conditions: labelled compound at 100 nM; pH 7.5, 110 mM K acetate, 2.5 mM Mg acetate, 26 °C; Hill fit n = 1
T1 construct: gene GCD11; full-length heterotrimer, 8xHis tag on N-terminus of eIF2γ (GCD11), overexpressed from pRS425_GCD11, SUI3, SUI2 in yeast YP920 (sui2Δ sui3Δ gcd11Δ); Ni-NTA, heparin and cation exchange; with Eukaryotic translation initiation factor 2 subunit alpha

[2] = biological target: T2, 3xHA-tagged eIF2β T238A mutant (yeast, UniProt P09064 1-285, T238A); experiment: co-IP; Co-IP of the 3xHA-tagged eIF2β subunit from yeast extract (Supplementary Figure S1); conditions: partners not purified
T2 construct: eIF2β, yeast SUI3 ORF + terminator with T238A, cloned behind SUI3 promoter + 3xHA; also called 3xHA-SUI3-T238A; source: yeast, single-copy plasmid, in whole-cell extract; not shown: 3xHA, N-terminal, kept
T2 sequence (looked up): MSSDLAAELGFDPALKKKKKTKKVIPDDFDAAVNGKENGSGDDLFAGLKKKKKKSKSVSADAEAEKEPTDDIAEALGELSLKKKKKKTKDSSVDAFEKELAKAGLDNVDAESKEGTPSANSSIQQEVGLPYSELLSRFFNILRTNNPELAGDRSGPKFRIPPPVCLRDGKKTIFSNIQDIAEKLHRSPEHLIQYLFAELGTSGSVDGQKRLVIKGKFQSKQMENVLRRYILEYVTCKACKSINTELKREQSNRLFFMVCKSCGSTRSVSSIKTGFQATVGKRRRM

[3] = biological target: T3, N-terminal 3xHA-tagged eIF2γ (wild type) (yeast, UniProt P32481 1-527); experiment: co-IP; 3xHA-eIF2γ precipitated with anti-HA agarose beads from 300 μg yeast WCE (YP912), 4°C, 1 h; 20 mM HEPES pH 7.5, 100 mM KCl, 5 mM MgCl2, 5 mM NaF, 1 mM EDTA, 0.2% NP-40, 1% BSA; Western blot, bands normalised to the anti-HA band; conditions: partners not purified
T3 construct: eIF2γ, yeast GCD11; GCD11 ORF + terminator cloned behind GCD11 promoter + 3xHA; also called 3xHA eIF2γ; eIF2γ^WT; source: yeast strain YP912 (gcd11Δ, sui3Δ), single-copy plasmid, in whole-cell extract; not shown: 3xHA, N-terminal, kept
T3 sequence (P32481 whole entry): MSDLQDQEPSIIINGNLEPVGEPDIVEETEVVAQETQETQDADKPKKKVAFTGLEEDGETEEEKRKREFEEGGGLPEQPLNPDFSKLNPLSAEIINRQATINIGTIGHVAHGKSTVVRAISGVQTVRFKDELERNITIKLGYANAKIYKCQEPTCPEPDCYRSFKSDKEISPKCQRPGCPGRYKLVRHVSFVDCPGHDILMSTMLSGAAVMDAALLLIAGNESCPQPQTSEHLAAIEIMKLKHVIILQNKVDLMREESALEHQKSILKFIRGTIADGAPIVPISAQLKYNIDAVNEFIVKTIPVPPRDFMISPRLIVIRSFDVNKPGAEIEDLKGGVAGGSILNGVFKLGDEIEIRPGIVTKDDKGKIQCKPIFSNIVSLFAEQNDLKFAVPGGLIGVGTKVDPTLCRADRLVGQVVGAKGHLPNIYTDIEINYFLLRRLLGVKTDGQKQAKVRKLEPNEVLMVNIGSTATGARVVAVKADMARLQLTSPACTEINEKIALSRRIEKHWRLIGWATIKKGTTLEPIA

T1 sequence (P32481 whole entry, one chain of several): as the sequence (P32481 whole entry) above
T1 sequence (P09064 whole entry partner, one chain of several): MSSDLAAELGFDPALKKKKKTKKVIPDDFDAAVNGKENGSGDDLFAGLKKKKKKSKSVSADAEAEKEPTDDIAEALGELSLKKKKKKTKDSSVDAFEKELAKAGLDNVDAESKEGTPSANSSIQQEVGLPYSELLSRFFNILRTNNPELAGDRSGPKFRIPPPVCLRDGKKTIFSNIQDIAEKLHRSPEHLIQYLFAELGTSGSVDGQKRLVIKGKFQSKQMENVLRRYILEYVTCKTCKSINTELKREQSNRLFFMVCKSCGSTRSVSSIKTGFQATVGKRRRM

Molecule: GDP-BODIPY
- Kd [1]: 36.7 nM

Molecule: GDPγS-BODIPY
- Kd [1]: 1400 nM

B1: eIF2α subunit (natural protein, yeast, UniProt P20459 1-304, looked up)
chain: MSTSHCRFYENKYPEIDDIVMVNVQQIAEMGAYVKLLEYDNIEGMILLSELSRRRIRSIQKLIRVGKNDVAVVLRVDKEKGYIDLSKRRVSSEDIIKCEEKYQKSKTVHSILRYCAEKFQIPLEELYKTIAWPLSRKFGHAYEAFKLSIIDETVWEGIEPPSKDVLDELKNYISKRLTPQAVKIRADVEVSCFSYEGIDAIKDALKSAEDMSTEQMQVKVKLVAAPLYVLTTQALDKQKGIEQLESAIEKITEVITKYGGVCNITMPPKAVTATEDAELQALLESKELDNRSDSEDDEDESDDE
notes: eIF2α, yeast SUI2; chromosomal gene in the co-IP strains, whole SUI2 gene on pRS425 for the purified complex; also called SUI2; source: endogenous, yeast whole-cell extract (YP912); yeast YP920, high-copy pRS425 plasmid, co-purified in the 8xHis-eIF2 complex
- fold change of binding against the 3xHA-eIF2β wild type [2]: 1.3 fold
- fold change of binding in the eIF2β^T238A strain against the eIF2β^WT strain [3]: ~4.5 fold
